Here are results for two compounds from BindingDB's records for doi:10.1021/jm800328v (Yale University, 2008).

The structures appear in SMILES notation. pIC50: −log10 of the molar value.

The target of this test is T1, ATP phosphoribosyltransferase (Mycobacterium tuberculosis (strain ATCC 25618 / H37Rv), UniProt P9WMN1).
T1 sequence (P9WMN1 whole entry): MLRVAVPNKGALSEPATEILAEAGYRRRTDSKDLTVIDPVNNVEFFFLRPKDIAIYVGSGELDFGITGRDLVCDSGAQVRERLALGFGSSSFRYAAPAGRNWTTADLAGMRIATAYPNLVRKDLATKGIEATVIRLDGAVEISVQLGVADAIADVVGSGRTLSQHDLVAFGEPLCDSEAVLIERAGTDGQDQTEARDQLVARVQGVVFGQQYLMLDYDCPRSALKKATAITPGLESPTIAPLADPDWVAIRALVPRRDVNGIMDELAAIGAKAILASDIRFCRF
Briefly: Enzyme Inhibition Assay. Particulars: pH 8.5; 22 °C. The protocol: Inhibition activity was determined using an assay that followed the production of PR-ATP spectrophotometrically. Enzymatic reaction was initiated by adding the substrate PRPP to reaction mixtures containing HisG enzyme and test compounds, and absorbance of product was monitored at 290 nm for 5 min until it formed a plateau.

In turn, `O=C(CSc1nnc(-c2ccccc2)c(-c2ccccc2)n1)Nc1nccs1` [2-[(5,6-diphenyl-1,2,4-triazin-3-yl)sulfanyl]-N-(1,3-thiazol-2-yl)acetamide] showed a pIC50 of 5.40.

Compound `COc1ccc(COC(=O)C2=C(C)N=C3CC(c4cccs4)CC(=O)C3C2c2cccs2)cc1` (configuration not stated) [(4-methoxyphenyl)methyl 2-methyl-5-oxo-4,7-bis(thiophen-2-yl)-1,4,5,6,7,8-hexahydroquinoline-3-carboxylate] gave a pIC50 of 5.00.

The term pIC50 denotes −log10 of the IC50, conventionally taken in molar units. High values mean a small IC50, low ones a large IC50.
